Values after ≈ are worked out from the molar mass of the structure shown. Like-named read-outs stand apart in the source and are kept apart here.
Test system: Cryptosporidium parvum (CP)
Experiment: Cell culture model of Cryptosporidium parvum infection in HCT-8 cells, real-time qRT-PCR
Format: cell-based
Conditions: for inhibition at 0.056 µM: HCT-8, @0.056 uM
Experimental: Fresh oocysts of CP (Iowa strain) were purchased from Bunch Grass Farm (Deary, Id.). Oocysts were further purified by a Percoll-based gradient centrifugation method and surface sterilized with 10% bleach for 7 min on ice, followed by washes with phosphate-buffered saline (PBS). An ileocecal colorectal adenocarcinoma cell line (HCT-8, ATCC #CCL-244) was used to host the growth of CP in vitro. One day before the inoculation, HCT-8 cells were seeded in 96-well plates (2.5×10^4/well) containing RPMI 1640 medium supplied with 10% fetal bovine serum (200 μL medium/well in all experiments) and allowed to grow overnight at 37° C. under 5% CO2 atmosphere until they reached ˜90% confluence. For drug testing, host cells were infected with 1.5×10^4 oocysts per well (ratio ˜1:3). After inoculation, parasite oocysts were allowed to undergo excystation and invasion into host cells for 3 h at 37° C. Free parasites and oocyst walls in the medium were removed from the plates by an exchange of the culture medium. Drugs at specified concentrations were added into the culture at this time point (immediately after the medium exchange). Parasite-infected cells were then incubated at 37° C. for additional 41 h (total 44 h infection time). At least two independent experiments were conducted for every experimental condition, each including two replicates drugs and eight replicates for negative controls.
Plates containing HCT-8 cells infected with CP for 44 h were first centrifuged for 10 min at 1000×g to ensure that free merozoites in the medium were firmly settled on the bottom of the wells. Medium was removed, followed by two gentle washes with PBS. For extracting total RNA, 200 μL of ice-cold Bio-Rad iScript qRT-PCR sample preparation reagent (lysis buffer) (Bio-Rad Laboratories, Hercules, Calif.) was added into each well. Plates were sealed with heat sealing films and subjected to vortex for 20 min. Plates were then incubated at 75° C. for 15 min, followed by centrifugation (5 min, 2000×g) to settle down cell debris. Supernatants were used immediately in subsequent qRT-PCR reactions or the plates were stored at −80° C. until use.
The levels of 18S rRNA transcripts from CP and host cells (referred to as Cp18S and Hs18S) were detected by real-time qRT-PCR method using qScrip™ one-step SYBR green qRT-PCR kit (Quanta Biosciences, Gaithersburg, Md.). Cell lysates prepared as described above were diluted by 100 and 2000 folds for detecting Cp18S and Hs18S transcripts, respectively. Reactions were performed in hard-shell 384-well skirted PCR plates (Bio-Rad Laboratories, Hercules, Calif.) (10 μL/well) containing 3 μL diluted cell lysate, 5 μL one-step SYBR green master mix, 0.2 μl RT master mix and the following primers: Cp18S-1011F and Cp18S-1185R primer pair for Cp18S rRNA, and Hs18S-1F and Hs18S-1R primer pair for Hs18S rRNA. Hs18S levels were used as controls and for normalization.
Real-time qRT-PCR reactions were performed by a Bio-Rad CFX384 Touch Real-Time PCR Detection System. The reactions started with synthesizing cDNA at 50° C. for 20 min, followed by 5 min at 95° C. to denature RNA-cDNA hybrids and deactivate reverse transcriptase, and 40 two-temperature thermal cycles of PCR amplification at 95° C., 10 sec and 58° C., 30 sec. At the end of PCR amplification, melting curve analysis was performed between 65° C. to 95° C. At least 2 technical replicates were included in qRT-PCR reactions for each sample.
The % inhibition (% inh @ (μM)) was calculated using a standard curve.

[1] = Cryptosporidium parvum, 44 h, CP in HCT-8 cells, 44 h infection, 50% reduction of parasite growth vs control, NA: not active, read-out: MIC50

MIC50 [1] [µM]	SMILES	also measured
0.056 to 0.112 (≈ 0.025 to 0.0499 µg/mL)	CC(C(=O)N1CCOC(C(N)=O)C1)c1ccc(Oc2nc3ccc(Cl)cc3s2)cc1 (stereo not drawn) [NZ-554, 4-(2-{4-[(6-chloro-1,3-benzothiazol-2-yl)oxy]phenyl}propanoyl)morpholine-2-carboxamide]	–
~0.03 (≈ 0.0131 µg/mL)	O=C(Cc1ccc(Oc2nc3ccc(Cl)cc3s2)cc1)N1CCS(=O)(=O)CC1 [NZ-576, 4-(2-{4-[(6-chloro-1,3-benzothiazol-2-yl)oxy]phenyl}acetyl)-1λ^6,4-thiomorpholine-1,1-dione]	–
0.112 (≈ 0.0487 µg/mL)	COCC(COC)NC(=O)C(C)c1ccc(Oc2nc3ccc(Cl)cc3s2)cc1 (stereo not drawn) [NZ-542, 2-{4-[(6-chloro-1,3-benzothiazol-2-yl)oxy]phenyl}-N-(1,3-dimethoxypropan-2-yl)propanamide]	–
~0.5 (≈ 0.195 µg/mL)	O=C(Nc1ccc(Oc2nc3ccc(Cl)cc3s2)cc1)N1CCOCC1 [NZ-572, N-{4-[(6-chloro-1,3-benzothiazol-2-yl)oxy]phenyl}morpholine-4-carboxamide]	–
~0.5 (≈ 0.219 µg/mL)	O=C(Nc1ccc(Oc2nc3ccc(Cl)cc3s2)cc1)N1CCS(=O)(=O)CC1 [NZ-573, N-{4-[(6-chloro-1,3-benzothiazol-2-yl)oxy]phenyl}-1,1-dioxo-1λ^6,4-thiomorpholine-4-carboxamide]	–
< 0.056	CC(C(=O)N1CCOCC1CO)c1ccc(Oc2nc3ccc(Cl)cc3s2)cc1 (stereo not drawn) [NZ-555, 2-{4-[(6-chloro-1,3-benzothiazol-2-yl)oxy]phenyl}-1-[3-(hydroxymethyl)morpholin-4-yl]propan-1-one]	inhibition at 0.056 µM (Cryptosporidium parvum): 79%

The remaining lines, values behind:

SMILES	MIC50 [1] [µM]	also measured
CNC(=O)C(C)c1ccc(Oc2nc3ccc(Cl)cc3s2)cc1 (single isomer, unassigned) [NZ-369 (peak 1), 2-{4-[(6-chloro-1,3-benzothiazol-2-yl)oxy]phenyl}-N-methylpropanamide]	–	MIC50 (CP in HCT-8 cells, 44 h infection, 50% reduction of parasite growth vs control, NA: not active, read-out: MIC50): 0.07 µM (≈ 0.0243 µg/mL)
O=C(N1CCOCC1)C1(c2ccc(Oc3nc4ccc(Cl)cc4s3)cc2)CC1 [NZ-561, 6-chloro-2-{4-[1-(morpholine-4-carbonyl)cyclopropyl]phenoxy}-1,3-benzothiazole]	0.04 (≈ 0.0166 µg/mL)	–
CC(C(=O)NCCN(C)C)c1ccc(Oc2cnc3cc(Cl)ccc3n2)cc1 (stereo not drawn) [NZ-535]	0.225 to 0.45 (≈ 0.0898 to 0.18 µg/mL)	–
CC(C(=O)NCCN)c1ccc(Oc2nc3ccc(Cl)cc3s2)cc1 (stereo not drawn) [NZ-518, N-(2-aminoethyl)-2-{4-([6-chloro-1,3-benzothiazol-2-yl)oxy]phenyl}propanamide]	> 0.45	–
O=C(Cc1ccc(Oc2nc3ccc(Cl)cc3s2)cc1)N1CCOCC1 [NZ-575, 2-{4-[(6-chloro-1,3-benzothiazol-2-yl)oxy]phenyl}-1-(morpholin-4-yl)ethan-1-one]	~1 (≈ 0.389 µg/mL)	–
CC(C(=O)N(C)CCN(C)C)c1ccc(Oc2nc3ccc(Cl)cc3s2)cc1 (stereo not drawn) [NZ-547, 2-{4-[(6-chloro-1,3-benzothiazol-2-yl)oxy]phenyl}-N-[2-(dimethylamino)ethyl]-N-methylpropanamide]	< 0.056	inhibition at 0.056 µM (Cryptosporidium parvum): 96%
O=C(Cc1ccc(Oc2nc3ccc(Cl)cc3s2)cc1)NC1COC1 [NZ-577, 2-{4-[(6-chloro-1,3-benzothiazol-2-yl)oxy]phenyl}-N-(oxetan-3-yl)acetamide]	~0.25 (≈ 0.0937 µg/mL)	–
CC(C(=O)NC1CNC(=O)C1)c1ccc(Oc2nc3ccc(Cl)cc3s2)cc1 (stereo not drawn) [NZ-562, 2-{4-[(6-chloro-1,3-benzothiazol-2-yl)oxy]phenyl}-N-(5-oxopyrrolidin-3-yl)propanamide]	~0.45 (≈ 0.187 µg/mL)	–
C[C@@H](Oc1ccc(Oc2nc3ccc([N+](=O)[O-])cc3s2)cc1)C(=O)O [NZ-261, (2R)-2-{4-[(6-nitro-1,3-benzothiazol-2-yl)oxy]phenoxy}propanoic acid]	–	MIC50 (Cryptosporidium parvum, 44 h): ~10 µM (≈ 3.6 µg/mL); inhibition at 10 µM (Cryptosporidium parvum, HCT-8, read-out: % inh @ (μM)): 60%
CNCCNC(=O)C(C)c1ccc(Oc2nc3ccc(Cl)cc3s2)cc1 (stereo not drawn) [NZ-548, 2-{4-[(6-chloro-1,3-benzothiazol-2-yl)oxy]phenyl}-N-[2-(methylamino)ethyl]propanamide]	0.112 to 0.225 (≈ 0.0437 to 0.0877 µg/mL)	inhibition at 0.112 µM (Cryptosporidium parvum, HCT-8, @0.112 uM): 45%
O=C(N1CCS(=O)(=O)CC1)C1(c2ccc(Oc3nc4ccc(Cl)cc4s3)cc2)CC1 [NZ-563, 4-(1-{4-[(6-chloro-1,3-benzothiazol-2-yl)oxy]phenyl}cyclopropanecarbonyl)-1λ^6,4-thiomorpholine-1,1-dione]	0.018 (≈ 0.00833 µg/mL)	–

From patent US11083717B2, “Compositions and methods for drug sensitization of parasites” (The Texas A&M University System, priority 2015, dated 2021)
